This is an account of results in ChEMBL document CHEMBL1201862, “PubChem BioAssay data set” (2004).

Test systems include CAKI-1; KM12; HCC 2998; NCI/ADR-RES; PC-3; HOP-92; UO-31; OVCAR-3; NCI-H522; SK-MEL-5; U-251; 786-0; SF-268; NCI-H23; ACHN; NCI-H226; HL-60; HCT-15; OVCAR-4; BT-549.
Holding throughout (test): NCI tumour cell line growth inhibition, 48 h

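Test compounds were applied to cells in 96-well plates for 48 hours at 5 doses. GI50 = concentration required for 50% inhibition of growth.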 Activity calls are given as the source filed them. Cut-off read from the data, not from the text of the source: active = GI50 up to about 1.1 µM and inactive = higher.

Regarding `COC(=O)[C@@H]1C2OC(C)(C)OC2CN1C(=O)OCc1ccccc1` (stereo not given in full), the GI50 in the assay on CAKI-1, in the assay with KM12, in the assay on HCC 2998, with NCI/ADR-RES, in the assay with PC-3 and in the assay with HOP-92 was > 100 µM (inactive) in each case. Besides, the GI50 in the assay with UO-31, in the assay with OVCAR-3, in the assay with NCI-H522, with SK-MEL-5, in the assay on U-251 and in the assay with 786-0 was > 100 µM (inactive) throughout. The GI50 is > 100 µM (inactive) with SF-268; > 100 µM (inactive) in the assay on NCI-H23; > 100 µM (inactive) in the assay on ACHN; > 100 µM (inactive) in the assay with NCI-H226; > 100 µM (inactive) in the assay with HL-60; more than 100 µM in the assay with HCT-15. The GI50 in the assay with OVCAR-4 and in the assay on BT-549 was > 100 µM (inactive) each time.

`Cc1c(Cl)c(C)c(Cl)c(O)c1Cl`: the GI50 was 21.4 µM (inactive) in the assay with CAKI-1; 26.3 µM (inactive) in the assay on KM12; 19.8 µM (inactive) in the assay with HCC 2998; 22.2 µM (inactive) in the assay with NCI/ADR-RES; 19.8 µM (inactive) with PC-3; 19.1 µM (inactive) in the assay with HOP-92. In addition, the GI50 is 17.4 µM (inactive) in the assay on UO-31; 19.5 µM (inactive) in the assay with OVCAR-3; 17.9 µM (inactive) with NCI-H522; 15.3 µM (inactive) in the assay with SK-MEL-5; 16.3 µM (inactive) with U-251; 43.3 µM (inactive) in the assay with 786-0. For the same molecule, the GI50 is 26.7 µM (inactive) in the assay on SF-268; 28.1 µM (inactive) with NCI-H23; 22.8 µM (inactive) with ACHN; 15.1 µM (inactive) with NCI-H226; 18.7 µM (inactive) in the assay on HL-60; 21.8 µM with HCT-15. Besides, the GI50 in the assay on OVCAR-4 is 26 µM (inactive); in the assay with BT-549 it was 24.3 µM (inactive).

`CCOC(=O)C1C(=O)CC(C)(O)C(C(=O)OCC)C1c1ccc(O)c(OC)c1` (stereo not given): the GI50 in the assay on CAKI-1, with KM12, in the assay on HCC 2998, with NCI/ADR-RES, with PC-3 and with HOP-92 was > 100 µM (inactive) in each case. The GI50 in the assay with UO-31, in the assay with OVCAR-3, with NCI-H522, in the assay with SK-MEL-5, in the assay with U-251 and in the assay with 786-0 was > 100 µM (inactive) in each case. The GI50 was > 100 µM (inactive) in the assay with SF-268; > 100 µM (inactive) in the assay on NCI-H23; > 100 µM (inactive) with ACHN; > 100 µM (inactive) in the assay on NCI-H226; > 100 µM (inactive) in the assay with HL-60; more than 100 µM in the assay on HCT-15. For the same molecule, the GI50 in the assay on OVCAR-4 and in the assay with BT-549 was > 100 µM (inactive) throughout.

`COc1ccc([N+](=O)[O-])c2c(NCCCN(C)C)c3ccccc3nc12`: the GI50 with CAKI-1 is 0.333 µM (active); with KM12 it was 0.0991 µM (active); in the assay on HCC 2998, < 0.0319 µM (active); with NCI/ADR-RES, 2.87 µM (inactive); in the assay with PC-3, 0.0276 µM (active); with HOP-92, 0.0782 µM (active). The GI50 is 0.255 µM (active) in the assay with UO-31; 0.125 µM (active) in the assay with OVCAR-3; 0.0286 µM (active) in the assay with NCI-H522; 0.106 µM (active) in the assay with SK-MEL-5; 0.152 µM (active) in the assay on U-251; 0.0778 µM (active) in the assay on 786-0. For the same molecule, the GI50 in the assay on SF-268 was 0.236 µM (active); with NCI-H23 it was 0.0625 µM (active); in the assay on ACHN it was 0.13 µM (active); in the assay with NCI-H226, 0.225 µM (active); in the assay on HL-60, 0.662 µM (active); in the assay with HCT-15, 0.0935 µM. In addition, the GI50 is 0.0354 µM (active) in the assay with OVCAR-4 and 0.701 µM (active) in the assay on BT-549.

On to `COc1ccc2c(c1)CC[C@@H]1C2CC[C@]2(C)OC(=O)CCC12` (stereo not given in full), for which the GI50 in the assay with CAKI-1 was 31.6 µM (inactive); with KM12, 32.2 µM (inactive); with HCC 2998, > 100 µM (inactive); with NCI/ADR-RES it was 14.9 µM (inactive); in the assay with PC-3, 12.6 µM (inactive); with HOP-92 it was 13 µM (inactive). The GI50 in the assay on UO-31 is 17.9 µM (inactive); in the assay with OVCAR-3, 11.6 µM (inactive); in the assay with NCI-H522, 6.07 µM (inactive); in the assay with SK-MEL-5 it was 12.6 µM (inactive); in the assay with U-251, 6.87 µM (inactive); with 786-0, 5.85 µM (inactive). For the same molecule, the GI50 with SF-268 is 12.1 µM (inactive); in the assay on NCI-H23, 12.6 µM (inactive); with ACHN it was 50.8 µM (inactive); in the assay on NCI-H226, 11.7 µM (inactive); with HL-60, > 100 µM (inactive); with HCT-15 it was 17.5 µM. The GI50 was 6.12 µM (inactive) with OVCAR-4 and 11.4 µM (inactive) with BT-549.

With `Cc1cc2c(cc1C)C(=O)/C(=N/Nc1ccc(F)cc1)CCO2`, the GI50 in the assay on CAKI-1, with KM12, in the assay on HCC 2998, in the assay on NCI/ADR-RES, in the assay on PC-3 and with HOP-92 was > 100 µM (inactive) in each case. The GI50 in the assay with UO-31 is > 100 µM (inactive); in the assay on OVCAR-3, > 100 µM (inactive); in the assay with NCI-H522, > 100 µM (inactive); with SK-MEL-5, 95.3 µM (inactive); with U-251, > 100 µM (inactive); with 786-0, > 100 µM (inactive). The GI50 was > 100 µM (inactive) in the assay on SF-268; > 100 µM (inactive) with NCI-H23; > 100 µM (inactive) with ACHN; > 100 µM (inactive) in the assay with NCI-H226; 26.4 µM (inactive) in the assay on HL-60; more than 100 µM in the assay with HCT-15. In addition, the GI50 in the assay with OVCAR-4 and with BT-549 was > 100 µM (inactive) throughout.

Consider `CNC(=O)OC(C)CN1c2ccccc2Sc2ccccc21` (stereo not given), for which the GI50 is > 100 µM (inactive) in the assay on CAKI-1; > 100 µM (inactive) with KM12; > 100 µM (inactive) with HCC 2998; 76 µM (inactive) in the assay with NCI/ADR-RES; 8.63 µM (inactive) in the assay on PC-3; 76.9 µM (inactive) with HOP-92. Also, the GI50 in the assay on UO-31 was > 100 µM (inactive); with OVCAR-3, > 100 µM (inactive); with NCI-H522, > 100 µM (inactive); in the assay on SK-MEL-5, 59.8 µM (inactive); in the assay with U-251 it was > 100 µM (inactive); in the assay on 786-0, 64.6 µM (inactive). For the same molecule, the GI50 in the assay on SF-268 was > 100 µM (inactive); in the assay on NCI-H23, > 100 µM (inactive); in the assay with ACHN, 83.8 µM (inactive); with NCI-H226, > 100 µM (inactive); in the assay on HL-60, 7.69 µM (inactive); in the assay on HCT-15, 32.1 µM. The GI50 in the assay with OVCAR-4 was 74.5 µM (inactive); with BT-549 it was > 100 µM (inactive).
